Measured values as given in patent publication US20250049791A1, “Synthesis of MEK7 Inhibitors and methods of Use Thereof” (Northwestern University, priority 2023, published 2025).
Read-outs that look alike come from different tables or passages of the source.

Assays:
[1] = target: T1, MEK5 (Homo sapiens, UniProt Q13163); test: Additional selectivity assay, MEK5 (FIG. 9); type: binding
T1 sequence (Q13163 1-448): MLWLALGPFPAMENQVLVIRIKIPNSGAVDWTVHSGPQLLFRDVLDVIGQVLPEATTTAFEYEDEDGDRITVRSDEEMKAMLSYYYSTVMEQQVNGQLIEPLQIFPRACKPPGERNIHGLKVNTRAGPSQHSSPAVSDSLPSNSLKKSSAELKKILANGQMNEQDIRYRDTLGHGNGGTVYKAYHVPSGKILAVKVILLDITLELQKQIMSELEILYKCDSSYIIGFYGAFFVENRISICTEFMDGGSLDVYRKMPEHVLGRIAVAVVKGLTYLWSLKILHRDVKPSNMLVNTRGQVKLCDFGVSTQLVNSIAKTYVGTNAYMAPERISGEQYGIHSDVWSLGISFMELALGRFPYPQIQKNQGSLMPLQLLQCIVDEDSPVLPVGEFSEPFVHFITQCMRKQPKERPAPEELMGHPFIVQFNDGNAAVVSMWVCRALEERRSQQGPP

[2] = target: T2, recombinant active full-length human MEK7 (Homo sapiens, UniProt O14733); test: ADP-Glo kinase activity assay, MEK7 with JNK1 substrate; type: biochemical; conditions: for IC50: 30 min preincubation
T2 construct: recombinant active full-length human MEK7 (Carna Biosciences); purchased Carna Biosciences
T2 sequence (O14733 1-419): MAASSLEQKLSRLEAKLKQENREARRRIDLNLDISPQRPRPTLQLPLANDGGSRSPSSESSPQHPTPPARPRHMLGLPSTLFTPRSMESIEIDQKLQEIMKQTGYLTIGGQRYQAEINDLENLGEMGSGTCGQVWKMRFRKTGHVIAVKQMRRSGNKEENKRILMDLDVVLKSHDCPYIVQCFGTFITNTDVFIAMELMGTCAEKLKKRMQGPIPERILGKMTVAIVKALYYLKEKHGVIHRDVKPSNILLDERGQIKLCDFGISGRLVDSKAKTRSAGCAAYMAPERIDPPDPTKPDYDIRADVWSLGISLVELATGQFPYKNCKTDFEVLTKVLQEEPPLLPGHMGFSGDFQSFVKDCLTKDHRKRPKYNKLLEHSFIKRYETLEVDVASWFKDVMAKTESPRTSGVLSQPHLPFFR
Procedure: Procedure for a 5 μL Kinase reaction using the ADP-Glo Kinase Assay Kit from Promega. Staurosporine was used as the positive control, and DMSO (vehicle) was employed as the negative control. Activity of recombinant active full-length human MEK7 (Carna Biosciences) was measured with recombinant full-length human substrate JNK1 (MAPK8). Using a Mantis, a mixture of MEK7 and JNK1 was dispensed into a 384-well low volume white Proxiplate. For each well, 4 ng of MEK7 and 600 ng of JNK1 in kinase buffer (CST) were used, accounting for 1 μL of this mixture per well. Inhibitor was prepared in a DMSO solution (40 mM). A dose-response dilution was performed in a 384-well Echo transfer plate. Using an Echo Access, 10 nL of each solution was dispensed into the same 384-well low volume white Proxiplate as above. This mixture was allowed to incubate for 30 minutes at room temperature. Using a Mantis, 1 uL of an 8 μM ATP solution was added to each well, and the plate was allowed to incubate for another 1 hour at room temperature. Using the Mantis again, 4 μL of ADP Glo Reagent was dispensed into each well, and the plate was allowed to incubate for 45 min at room temperature. Finally, 9 μL of Kinase Detection Reagent was added manually to each well, and the plate was allowed to incubate for 45 minutes at room temperature. Luminescence was read on a Synergy Neo2 Plate Reader with filter cubes 3 and 114. Integration time was set to 0.20 seconds, gain set to 160, and read height set at 6 mm. All experiments were performed in triplicate on the plate, and at least in one separate technical duplicate was performed.
MEK4 selectivity was performed in the same manner with activated MEK4 (Carna Biosciences). Here, p-38α was employed as the kinase substrate in lieu of JNK1 due to the availability of reagents. […] To probe the ATP-competitive nature of 25, this compound was subjected to a similar assay forgoing the 30 minute incubation time described above (STAR Protocols 2021, 2, 100717). The results are tabulated below in compound characterization. Potency determined by duplicate of triplicates corresponded to a IC50 value, which is in line with the ratio difference observed among other covalent inhibitors (for examples, see Cell Chem. Biol. 2020, 27, 1285).

[3] = target: T3, MEK3 (Homo sapiens, UniProt P46734); test: Additional selectivity assay, MEK3 (FIG. 9); type: binding
T3 sequence (P46734 1-347): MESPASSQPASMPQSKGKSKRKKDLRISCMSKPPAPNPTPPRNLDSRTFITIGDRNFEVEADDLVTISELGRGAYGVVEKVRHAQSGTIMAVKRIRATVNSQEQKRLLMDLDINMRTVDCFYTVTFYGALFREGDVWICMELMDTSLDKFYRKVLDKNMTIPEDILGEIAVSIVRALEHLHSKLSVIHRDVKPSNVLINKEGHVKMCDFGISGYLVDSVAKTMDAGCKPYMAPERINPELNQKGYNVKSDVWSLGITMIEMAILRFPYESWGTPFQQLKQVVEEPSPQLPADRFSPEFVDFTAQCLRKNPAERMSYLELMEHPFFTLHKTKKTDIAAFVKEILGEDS

[4] = target: T4, MEK6 (Homo sapiens, UniProt P52564); test: Additional selectivity assay, MEK6 (FIG. 9); type: binding
T4 sequence (P52564 1-334): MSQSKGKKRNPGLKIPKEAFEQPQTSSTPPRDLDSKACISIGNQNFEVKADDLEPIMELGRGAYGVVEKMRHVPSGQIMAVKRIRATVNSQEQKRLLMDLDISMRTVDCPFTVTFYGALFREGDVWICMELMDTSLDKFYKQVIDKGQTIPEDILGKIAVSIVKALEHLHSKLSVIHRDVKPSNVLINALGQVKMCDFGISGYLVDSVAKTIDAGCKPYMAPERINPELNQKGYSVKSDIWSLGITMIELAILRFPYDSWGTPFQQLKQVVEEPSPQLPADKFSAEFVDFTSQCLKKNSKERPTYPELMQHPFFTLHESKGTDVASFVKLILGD

[5] = PAMPA permeability; type: in vitro ADME; conditions: FIG. 12
[6] = MEK7 IC50, first experiment (IC50±SEM, n=3), first value in brackets
[7] = MEK7 IC50, second experiment (IC50±SEM, n=3), second value in brackets
[8] = overall value of two experiments, read-out: MEK7 IC50

activity/binding at MEK5 [1] | in vitro activity against MAP2K7, in words ([2]; ADP-Glo assay, comparison within the series) | IC50 [2, 6] | IC50 [2, 7] | activity/binding at MEK3 [3] | activity/binding at MEK6 [4] | PAMPA cell permeability [5] | IC50 [2, 8] | IC50 ([2]; read-out: MEK7 IC50) | IC50 ([2]; read-out: MEK7 IC50, first experiment (IC50±SEM, n=3), first value in brackets) | IC50 ([2]; read-out: MEK7 IC50, second experiment (IC50±SEM, n=3), second value in brackets) | SMILES
inactive | less active than compound 8 | 230 ± 190 nM | 610 ± 400 nM | inactive | inactive | – | – | – | – | – | C=CC(=O)Nc1cccc(Oc2cc(NC)ncn2)c1 [Compound 9, N-(3-((6-(methylamino)pyrimidin-4-yl)oxy)phenyl) acrylamide]
inactive | – | 87 ± 41 nM | 34 ± 42 nM | inactive | inactive | highly membrane permeable | 60 nM | 60 nM | – | – | CNc1cc(Oc2cccc(NC(=O)CCl)c2)ncn1 [Compound 8, 2-chloro-N-(3-((6-(methylamino)pyrimidin-4-yl)oxy)phenyl)acetamide]
– | – | – | – | – | – | – | 42 nM | 42 nM | 42 ± 36 nM | 42 ± 58 nM | O=C(CCl)Nc1cccc(Oc2cc(NCc3ccc(F)c(F)c3)ncn2)c1 [Compound 29, 2-chloro-N-(3-((6-((3,4-difluorobenzyl)amino)pyrimidin-4-yl)oxy)phenyl)acetamide]
